Experimental data taken from patent publication US8829007B2 (priority 2009, dated 2014).

These molecules were tested on influenza A virus (A/PR/8/34) (assay: microbe, parasite or virus in culture). Conditions: Influenza A virus, PR/8, MDCK, MDCK cells infected with A/PR/8/34, cell protection (CPE); read-out: IC50 (mean all).
Assay type: cell-based
With `C[C@@H](CO)CN1CCC[C@@H](CNc2nc(-c3c[nH]c4ncc(Cl)cc34)ncc2F)C1` [Compound 141, (R)-3-((S)-3-((2-(5-chloro-1H-pyrrolo[2,3-b]pyridin-3-yl)-5-fluoropyrimidin-4-ylamino)methyl)piperidin-1-yl)-2-methylpropan-1-ol] the IC50 was greater than 20 µM.
Molecule `O=C(c1ccccc1Oc1ccccc1)N1CCC[C@H](CNc2nc(-c3c[nH]c4ncc(Cl)cc34)ncc2F)C1` [Compound 150, (R)-(3-((2-(5-chloro-1H-pyrrolo[2,3-b]pyridin-3-yl)-5-fluoropyrimidin-4-ylamino)methyl)piperidin-1-yl)(2-phenoxyphenyl)methanone] has an IC50 of 5 to 20 µM.
With `CCOc1ccccc1C(=O)N1CCC[C@H](CNc2nc(-c3c[nH]c4ncc(Cl)cc34)ncc2F)C1` [Compound 158, (R)-(3-((2-(5-chloro-1H-pyrrolo[2,3-b]pyridin-3-yl)-5-fluoropyrimidin-4-ylamino)methyl)piperidin-1-yl)(2-ethoxyphenyl)methanone] the IC50 was less than 5 µM.
Molecule `O=C(c1nccs1)N1CCCC[C@H]1CNc1nc(-c2c[nH]c3ncc(Cl)cc23)ncc1F` [Compound 165, (S)-(2-((2-(5-chloro-1H-pyrrolo[2,3-b]pyridin-3-yl)-5-fluoropyrimidin-4-ylamino)methyl)piperidin-1-yl)(thiazol-2-yl)methanone] has an IC50 greater than 20 µM.
In the case of `COc1cccc(C(=O)N2CCCC[C@H]2CNc2nc(-c3c[nH]c4ncc(Cl)cc34)ncc2F)c1` [Compound 174, (S)-(2-((2-(5-chloro-1H-pyrrolo[2,3-b]pyridin-3-yl)-5-fluoropyrimidin-4-ylamino)methyl)piperidin-1-yl)(3-methoxyphenyl)methanone], the IC50 is reported as greater than 20 µM.
Work on `COc1cccc(C(=O)N2CCCC[C@@H]2CNc2nc(-c3c[nH]c4ncc(Cl)cc34)ncc2F)c1` [Compound 184, (R)-(2-((2-(5-chloro-1H-pyrrolo[2,3-b]pyridin-3-yl)-5-fluoropyrimidin-4-ylamino)methyl)piperidin-1-yl)(3-methoxyphenyl)methanone] yielded an IC50 greater than 20 µM.
`COc1ccccc1C(=O)N1CCCC[C@@H]1CNc1nc(-c2c[nH]c3ncc(Cl)cc23)ncc1F` [Compound 190, (R)-(2-((2-(5-chloro-1H-pyrrolo[2,3-b]pyridin-3-yl)-5-fluoropyrimidin-4-ylamino)methyl)piperidin-1-yl)(2-methoxyphenyl)methanone] gave an IC50 of 5 to 20 µM.
Work on `CCCC(=O)N1CCC[C@@H](CNc2nc(-c3c[nH]c4ncccc34)ncc2F)C1` [Compound 225, (S)-1-(3-((5-fluoro-2-(1H-pyrrolo[2,3-b]pyridin-3-yl)pyrimidin-4-ylamino)methyl)piperidin-1-yl)butan-1-one] yielded an IC50 of 5 to 20 µM.
`CN(C)C(=O)N1CCC[C@@H](CNc2nc(-c3c[nH]c4ncccc34)ncc2F)C1` [Compound 228, (S)-3-((5-fluoro-2-(1H-pyrrolo[2,3-b]pyridin-3-yl)pyrimidin-4-ylamino)methyl)-N,N-dimethylpiperidine-1-carboxamide] gave an IC50 of 5 to 20 µM.
In the case of `CC(=O)N1CCCC[C@H]1CNc1nc(-c2c[nH]c3ncccc23)ncc1F` [Compound 256, (S)-1-(2-((5-fluoro-2-(1H-pyrrolo[2,3-b]pyridin-3-yl)pyrimidin-4-ylamino)methyl)piperidin-1-yl)ethanone], the IC50 is reported as 5 to 20 µM.
`CCC(=O)N1CCCC[C@H]1CNc1nc(-c2c[nH]c3ncccc23)ncc1F` [Compound 257, (S)-1-(2-((5-fluoro-2-(1H-pyrrolo[2,3-b]pyridin-3-yl)pyrimidin-4-ylamino)methyl)piperidin-1-yl)propan-1-one] showed an IC50 of 5 to 20 µM.
With `CCCC(=O)N1CCCC[C@H]1CNc1nc(-c2c[nH]c3ncccc23)ncc1F` [Compound 258, (S)-1-(2-((5-fluoro-2-(1H-pyrrolo[2,3-b]pyridin-3-yl)pyrimidin-4-ylamino)methyl)piperidin-1-yl)butan-1-one] the IC50 was 5 to 20 µM.
Molecule `O=C(c1ccccc1)N1CCCC[C@H]1CNc1nc(-c2c[nH]c3ncccc23)ncc1F` [Compound 259, (S)-(2-((5-fluoro-2-(1H-pyrrolo[2,3-b]pyridin-3-yl)pyrimidin-4-ylamino)methyl)piperidin-1-yl)(phenyl)methanone] has an IC50 of 5 to 20 µM.
`COc1ccccc1C(=O)N1CCCC[C@H]1CNc1nc(-c2c[nH]c3ncccc23)ncc1F` [Compound 260, (S)-(2-((5-fluoro-2-(1H-pyrrolo[2,3-b]pyridin-3-yl)pyrimidin-4-ylamino)methyl)piperidin-1-yl)(2-methoxyphenyl)methanone] was tested, and the IC50 was greater than 20 µM.
`CC(=O)N1CCC[C@H](CNc2nc(-c3c[nH]c4ncccc34)ncc2F)C1` [Compound 268, (R)-1-(3-((5-fluoro-2-(1H-pyrrolo[2,3-b]pyridin-3-yl)pyrimidin-4-ylamino)methyl)piperidin-1-yl)ethanone] showed an IC50 of 5 to 20 µM.
For `CCCC(=O)N1CCC[C@H](CNc2nc(-c3c[nH]c4ncccc34)ncc2F)C1` [Compound 270, (R)-1-(3-((5-fluoro-2-(1H-pyrrolo[2,3-b]pyridin-3-yl)pyrimidin-4-ylamino)methyl)piperidin-1-yl)butan-1-one], the IC50 was 5 to 20 µM.
In the case of `O=C(c1ccccc1)N1CCC[C@H](CNc2nc(-c3c[nH]c4ncccc34)ncc2F)C1` [Compound 271, (R)-(3-((5-fluoro-2-(1H-pyrrolo[2,3-b]pyridin-3-yl)pyrimidin-4-ylamino)methyl)piperidin-1-yl)(phenyl)methanone], the IC50 is reported as 5 to 20 µM.
In the case of `COc1ccccc1C(=O)N1CCC[C@H](CNc2nc(-c3c[nH]c4ncccc34)ncc2F)C1` [Compound 272, (R)-(3-((5-fluoro-2-(1H-pyrrolo[2,3-b]pyridin-3-yl)pyrimidin-4-ylamino)methyl)piperidin-1-yl)(2-methoxyphenyl)methanone], the IC50 is reported as greater than 20 µM.
Work on `CNC(=O)N1CCC[C@H](CNc2nc(-c3c[nH]c4ncccc34)ncc2F)C1` [Compound 274] yielded an IC50 of 5 to 20 µM.
Molecule `CCNC(=O)N1CCC[C@H](CNc2nc(-c3c[nH]c4ncccc34)ncc2F)C1` [Compound 275, (R)—N-ethyl-3-((5-fluoro-2-(1H-pyrrolo[2,3-b]pyridin-3-yl)pyrimidin-4-ylamino)methyl)piperidine-1-carboxamide] has an IC50 of 5 to 20 µM.
Work on `CCCNC(=O)N1CCC[C@H](CNc2nc(-c3c[nH]c4ncccc34)ncc2F)C1` [Compound 276] yielded an IC50 greater than 20 µM.
Molecule `O=C(CCCCl)N1CCCC[C@@H]1CNc1nc(-c2c[nH]c3ncc(Cl)cc23)ncc1F` [Compound 278, (R)-4-chloro-1-(2-((2-(5-chloro-1H-pyrrolo[2,3-b]pyridin-3-yl)-5-fluoropyrimidin-4-ylamino)methyl)piperidin-1-yl)butan-1-one] has an IC50 greater than 20 µM.
`O=C(CC1CCCCC1)N1CCCC[C@@H]1CNc1nc(-c2c[nH]c3ncc(Cl)cc23)ncc1F` [Compound 294, (R)-1-(2-((2-(5-chloro-1H-pyrrolo[2,3-b]pyridin-3-yl)-5-fluoropyrimidin-4-ylamino)methyl)piperidin-1-yl)-2-cyclohexylethanone] was tested, and the IC50 was greater than 20 µM.

Same assay, conditions: Influenza A virus, PR/8, MDCK; read-out: IC50 (mean all)
In the case of `CCC(=O)N1CCCC(CNc2nc(-c3c[nH]c4ncccc34)ncc2F)C1` (stereo not shown) [Compound 269], the IC50 is reported as 5 to 20 µM.

Same assay, conditions: MDCK cells infected with A/PR/8/34, cell protection (CPE); read-out: IC50 (mean all)
`NC1CCCCC1Nc1nc(-c2c[nH]c3ncccc23)ncc1F` (stereo not drawn) [Compound 206, N-[5-fluoro-2-(1H-pyrrolo[5,4-b]pyridin-3-yl)pyrimidin-4-yl]cyclohexane-cis-1,2-diamine] was tested, and the IC50 was less than 5 µM.
